Measured values published in patent US20230278972A1, “SUBSTITUTED HALOALKYL SULFONANILIDE HERBICIDES” (FMC Corporation, priority 2020, published 2023).

Experiments:
Format in all cases: in vivo
kochia (Bassia scoparia) [1] = experiment: Test A postemergence, kochia; conditions: Postemergence, 0 to 100 scale (0 no effect, 100 complete control); for Plant response rating, Kochia: 125 g ai/ha, visual injury approx. 10 days; for Kochia plant response rating: 500 g ai/ha, visual injury vs untreated controls after approx. 10 days
Summary of the method: (§1)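 After sowing into a sand-amended loam, pots for the preemergence test were treated by spraying directly onto soil. In parallel, seedlings at the one- to two-leaf stage and 2 to 10 cm tall were treated postemergence with the identical surfactant-containing formulation.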

[2] = tested on: barnyardgrass (Echinochloa crus-galli); experiment: Test A postemergence, barnyardgrass; conditions: Postemergence, 0 to 100 scale (0 no effect, 100 complete control); for Plant response rating, Barnyardgrass: 125 g ai/ha, visual injury approx. 10 days; for Barnyardgrass plant response rating: 500 g ai/ha, visual injury vs untreated controls after approx. 10 days
Summary of the method: (§2)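 Formulated with a surfactant in a non-phytotoxic solvent, compounds are applied to loam–sand pots, either to bare soil immediately after seeding (preemergence) or to seedlings of 2 to 10 cm bearing one to two leaves (postemergence).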

[3] = tested on: pigweed (Amaranthus retroflexus); experiment: Test A postemergence, pigweed; conditions: Postemergence, 0 to 100 scale (0 no effect, 100 complete control); for Plant response rating, Pigweed: 125 g ai/ha, visual injury approx. 10 days; for Pigweed plant response rating: 500 g ai/ha, visual injury vs untreated controls after approx. 10 days
Summary of the method: as §1

[4] = tested on: barnyardgrass (Echinochloa crus-galli); experiment: Test A preemergence, barnyardgrass; conditions: Preemergence; for Barnyardgrass plant response rating: 125 g ai/ha, visual injury on 0 to 100 scale (0 no effect, 100 complete control), approximately 10 days; for Plant response rating, Barnyardgrass: 500 g ai/ha, 0 to 100 scale (0 no effect, 100 complete control)
Summary of the method: as §1

[5] = tested on: pigweed (Amaranthus retroflexus); experiment: Test A preemergence, pigweed; conditions: for Pigweed plant response rating: 125 g ai/ha, visual injury on 0 to 100 scale (0 no effect, 100 complete control), approximately 10 days; for Plant response rating, Pigweed: 500 g ai/ha, 0 to 100 scale (0 no effect, 100 complete control)
Summary of the method: as §2

[6] = tested on: ragweed (common ragweed, Ambrosia artemisiifolia); experiment: Test A preemergence, ragweed; conditions: Preemergence; for Ragweed plant response rating: 125 g ai/ha, visual injury on 0 to 100 scale (0 no effect, 100 complete control), approximately 10 days; for Plant response rating, Ragweed: 500 g ai/ha, 0 to 100 scale (0 no effect, 100 complete control)
Summary of the method: as §1

[7] = tested on: Ryegrass, Italian (Italian ryegrass, Lolium multiflorum); experiment: Test A postemergence, Ryegrass, Italian; conditions: Postemergence, 0 to 100 scale (0 no effect, 100 complete control); for Plant response rating, Ryegrass, Italian: 125 g ai/ha, visual injury approx. 10 days; for Ryegrass, Italian plant response rating: 500 g ai/ha, visual injury vs untreated controls after approx. 10 days
Summary of the method: as §1

[8] = tested on: Foxtail, Giant (giant foxtail, Setaria faberi); experiment: Test A preemergence, Foxtail, Giant; conditions: Preemergence; for Foxtail, Giant plant response rating: 125 g ai/ha, visual injury on 0 to 100 scale (0 no effect, 100 complete control), approximately 10 days; for Plant response rating, Foxtail, Giant: 500 g ai/ha, 0 to 100 scale (0 no effect, 100 complete control)
Summary of the method: as §1

corn (Zea mays) = experiment: Test A postemergence, corn; conditions: Postemergence, 0 to 100 scale (0 no effect, 100 complete control); for Plant response rating, Corn: 125 g ai/ha, visual injury approx. 10 days; for Corn plant response rating: 500 g ai/ha, visual injury vs untreated controls after approx. 10 days
Summary of the method: as §1

kochia (Bassia scoparia) [9] = experiment: Test A preemergence, kochia; conditions: Preemergence; for Kochia plant response rating: 125 g ai/ha, visual injury on 0 to 100 scale (0 no effect, 100 complete control), approximately 10 days; for Plant response rating, Kochia: 500 g ai/ha, 0 to 100 scale (0 no effect, 100 complete control)
Summary of the method: as §1

[10] = tested on: blackgrass (Alopecurus myosuroides); experiment: Test A postemergence, blackgrass; conditions: Postemergence, 0 to 100 scale (0 no effect, 100 complete control); for Plant response rating, Blackgrass: 125 g ai/ha, visual injury approx. 10 days; for Blackgrass plant response rating: 500 g ai/ha, visual injury vs untreated controls after approx. 10 days
Summary of the method: as §1

[11] = tested on: Ryegrass, Italian (Italian ryegrass, Lolium multiflorum); experiment: Test A preemergence, Ryegrass, Italian; conditions: Preemergence; for Ryegrass, Italian plant response rating: 125 g ai/ha, visual injury on 0 to 100 scale (0 no effect, 100 complete control), approximately 10 days; for Plant response rating, Ryegrass, Italian: 500 g ai/ha, 0 to 100 scale (0 no effect, 100 complete control)
Summary of the method: as §1

[12] = tested on: galium (catchweed bedstraw, Galium aparine); experiment: Test A postemergence, galium; conditions: Postemergence, 0 to 100 scale (0 no effect, 100 complete control); for Plant response rating, Galium: 125 g ai/ha, visual injury approx. 10 days; for Galium plant response rating: 500 g ai/ha, visual injury vs untreated controls after approx. 10 days
Summary of the method: as §2

[13] = tested on: ragweed (common ragweed, Ambrosia artemisiifolia); experiment: Test A postemergence, ragweed; conditions: Postemergence, 0 to 100 scale (0 no effect, 100 complete control); for Plant response rating, Ragweed: 125 g ai/ha, visual injury approx. 10 days; for Ragweed plant response rating: 500 g ai/ha, visual injury vs untreated controls after approx. 10 days
Summary of the method: as §1

[14] = tested on: wheat (Triticum aestivum); experiment: Test A postemergence, wheat; conditions: Postemergence, 0 to 100 scale (0 no effect, 100 complete control); for Plant response rating, Wheat: 125 g ai/ha, visual injury approx. 10 days; for Wheat plant response rating: 500 g ai/ha, visual injury vs untreated controls after approx. 10 days
Summary of the method: as §2

[15] = tested on: Foxtail, Giant (giant foxtail, Setaria faberi); experiment: Test A postemergence, Foxtail, Giant; conditions: Postemergence, 0 to 100 scale (0 no effect, 100 complete control); for Plant response rating, Foxtail, Giant: 125 g ai/ha, visual injury approx. 10 days; for Foxtail, Giant plant response rating: 500 g ai/ha, visual injury vs untreated controls after approx. 10 days
Summary of the method: as §1

Row | Compound | Plant response rating, Kochia (kochia (Bassia scoparia) [1]) | Kochia plant response rating (kochia (Bassia scoparia) [1]) | Plant response rating, Barnyardgrass [2] | Barnyardgrass plant response rating [2] | Plant response rating, Pigweed [3] | Pigweed plant response rating [3] | Barnyardgrass plant response rating [4] | Plant response rating, Barnyardgrass [4] | Pigweed plant response rating [5] | Plant response rating, Pigweed [5] | Ragweed plant response rating [6] | Plant response rating, Ragweed [6] | Plant response rating, Ryegrass, Italian [7] | Ryegrass, Italian plant response rating [7] | Foxtail, Giant plant response rating [8] | Plant response rating, Foxtail, Giant [8] | Plant response rating, Corn (corn (Zea mays)) | Corn plant response rating (corn (Zea mays)) | Kochia plant response rating (kochia (Bassia scoparia) [9]) | Plant response rating, Kochia (kochia (Bassia scoparia) [9]) | also measured
1 | Cc1cc(C)c(N(S(=O)(=O)C(F)(F)F)S(=O)(=O)C(F)(F)F)cc1-c1cc(Br)nn(C)c1=O [Compound 67] | 10 | 40 | 0 | 40 | 30 | 80 | 70 | 100 | 50 | 80 | 0 | 60 | 0 | 60 | 90 | 100 | 0 | 0 | 0 | 70 | Plant response rating, Blackgrass [10]: 0; Blackgrass plant response rating [10]: 60; Ryegrass, Italian plant response rating [11]: 80; Plant response rating, Ryegrass, Italian [11]: 90; Plant response rating, Galium [12]: 50; Galium plant response rating [12]: 60; Plant response rating, Ragweed [13]: 0; Ragweed plant response rating [13]: 10; Plant response rating, Wheat [14]: 30; Wheat plant response rating [14]: 60; Plant response rating, Foxtail, Giant [15]: 10; Foxtail, Giant plant response rating [15]: 70
2 | CCn1nc(C)cc(-c2cc(NS(=O)(=O)C(F)(F)F)c(C)cc2C)c1=O [Compound 68] | 10 | 50 | 60 | 80 | 20 | 50 | 100 | 100 | 70 | 90 | 30 | 90 | 40 | 80 | 100 | 100 | 10 | 20 | 70 | 90 | Plant response rating, Blackgrass [10]: 70; Blackgrass plant response rating [10]: 70; Ryegrass, Italian plant response rating [11]: 90; Plant response rating, Ryegrass, Italian [11]: 100; Plant response rating, Galium [12]: 50; Galium plant response rating [12]: 80; Plant response rating, Ragweed [13]: 50; Ragweed plant response rating [13]: 80; Plant response rating, Wheat [14]: 70; Wheat plant response rating [14]: 80; Plant response rating, Foxtail, Giant [15]: 20; Foxtail, Giant plant response rating [15]: 90
3 | Cc1cc(C)c(-c2cc(Br)nn(C)c2=O)cc1NS(=O)(=O)C(F)(F)F [Compound 69] | 40 | 60 | 0 | 80 | 70 | 90 | 40 | 90 | 80 | 100 | 50 | 90 | 40 | 70 | 100 | 100 | 10 | 20 | 70 | 90 | Plant response rating, Blackgrass [10]: 0; Blackgrass plant response rating [10]: 50; Ryegrass, Italian plant response rating [11]: 100; Plant response rating, Ryegrass, Italian [11]: 100; Plant response rating, Galium [12]: 60; Galium plant response rating [12]: 70; Plant response rating, Ragweed [13]: 60; Ragweed plant response rating [13]: 80; Plant response rating, Wheat [14]: 60; Wheat plant response rating [14]: 70; Plant response rating, Foxtail, Giant [15]: 80; Foxtail, Giant plant response rating [15]: 90
